Entries after “also recorded” stand apart in the source; their conditions may differ.
How the values were obtained:
[1] = tested on: HUVEC (human umbilical vein endothelial cells); test: HUVEC DNA amount in the well after three days culture; assay type: cell-based; settings: compared to RAD, FIG. 25
Protocol: (§1) The peptide solutions shown in Table 19 were loaded in the culture inserts (10 mm diameter, Millicell-CM, Millipore) and gels were formed using cell culture medium (EGM-2-MV, Camblex). Collagen-1 and Matrigel were used as control matrices. HUVEC (human umbilical vein endothelial cells) were plated at 8×10^4 cells on the inserts and cultured up to 7 Days.
The amount of DNA in the well after three days culture was evaluated in selected hydrogels of Table 19. The DNA amount is proportional to the number of the cells.

[2] = tested on: chick Chorioallantoic Membrane; test: Chorioallantoic Membrane (CAM) assay of angiogenesis; assay type: in vivo, chicken; settings: hydrogel placed Day 8, histology Day 12, FIG. 30
Protocol: In vivo study of angiogenesis was performed using Chorioallantoic Membrane (CAM) assay. At Day 8 of fertilized chicken egg incubation, hydrogels of 10 mm diameter with 1 mm thickness were transferred to chick Chorioallantoic Membrane. The hydrogels were selected from Table 19 and gels were formed before the transfer. On Day 12, CAMs were collected for histology. The angiogenesis inside and below the hydrogel were evaluated by histological cross section.

[3] = tested on: HUVEC (human umbilical vein endothelial cells); test: Endothelial cell migration from beads to hydrogels; assay type: cell-based; settings: Day 2; compared to RAD; FIGS. 26-27
Protocol: Endothelial cell migration effect on the hydrogels was evaluated. The endothelial cell migration is important when the vessel has in-growth into the matrix. HUVEC (human umbilical vein endothelial cells) were seeded on Collagen coated Dextran beads (Cytodex3, microcarrier beads, Sigma), then transferred to different hydrogels which selected from Table 19.
FIGS. 26A-26F show the fluorescence microscopy image of beads on the peptide matrix at Day 1 and Day 2 after placing the beads. […] The white bar represents 100 um. On the Day 1, most of the cells stayed on the beads. On the Day 2, the cells were well migrated from the beads to Collagen, PRGmx and KLTmx gel compared to RAD.
The cells are counted in fluorescence microscopy image. The above observation were also confirmed in the graph.

[4] = tested on: HUVEC (human umbilical vein endothelial cells); test: HUVEC cultured 2-dimensionally on hydrogels: cell attachment and morphology; assay type: cell-based
Protocol: The effect of functional modified peptide matrix to HUVEC (human umbilical vein endothelial cells) was evaluated by culturing cells 2-dimensionally on the gel.
as §1

[5] = tested on: HUVEC (human umbilical vein endothelial cells); test: HUVEC cell attachment on hydrogels based on various self-assembling sequence; settings: HUVEC cultured for three days
Protocol: Cell attachment and viability of the hydrogels were evaluated using HUVEC (human umbilical vein endothelial cells). The peptide solutions shown in Table 22 were loaded in the culture inserts (10 mm diameter, Millicell-CM, Millipore) and gels were formed using cell culture medium (EGM-2-MV, Camblex). HUVEC were plated at 8×10^4 cells on the inserts and cultured for three days.
This implies that functionalization of the self-assembling peptide is useful regardless of the basic repetitive sequence, while the properties of hydrogel can be controlled by altering basic repetitive sequence in amino acid and length.

[6] = neutral pH range (Caplan 2002a); cited from earlier work
[7] = pI and charge of the self-assembling peptide; assay type: physicochemical
Protocol: A comparison of the pH dependent property of 1% Ac(RADA)4GGFHRRIKA CONH2 (SEQ ID NO. 6) solution (Code: FHR), self assembling peptide sequence was compared with the heparin-binding motif. FIG. 12 depicts the isoelectric plot and corresponding rheological data when 0.1 N NaOH solution is added to FHR solution to adjust pH. The net charge of the peptide molecule is kept ≧2 when pH<10. Until at point of pH 5.7, the solution keeps viscous state. This movement of pH point where the peptide solution become gel is controlled by the charge induced by the additional motif to the self-assembling peptide. The induced charge prevents the peptide to aggregate to form the gel. Thus, the cell and the peptide solution can be mixed near neutral pH. After complete mixing, the gel formation can be made by adding salt containing solution (e.g., a solution containing a gellation agent or an iso-osmotic solute).
FIG. 18 depicts the isoelectric plot and Rheological data of PFS 1% solution when 0.1 N NaOH solution is added. 1% Ac(RADA)4GGSKPPGTSS-CONH2 solution (Code: SKP, peptide sequence: SEQ ID NO. 7) is a hydrogel composed of peptides with a self-assembling sequence and positively-charged functional motif. Although the pI value of the peptide is 9.74 and it keeps positive charge at near pH 7 range, the gel is formed at the point of pH 4.5. This is because the charge of the molecule around pH 7 range is +1 and smaller than the charge of Ac(RADA)4GGFHRRIKA CONH2 (FHR) (bigger than 3). The charge of the whole peptide should be larger than 2 when the cell is mixed. This pH should be somewhere in 6-8 in order to minimize the damage to the cells. As this sequence is heparin-binding motif, the fiber can attach to the heparin molecule which is abundant at cell surface. This heparin-binding motif provides a specific anchor to the cell. As described in Example 1, this binding synergistically works with the other binding motif (e.g., RGD) to induce biological stimuli for cell proliferation and differentiation. This effect is not limited to the sequences previously describe, but the other motifs, including -XBBXBX- and -XBBBXXBX- sequences. […]

bFGF = bFGF (Homo sapiens, UniProt P09038); test: bFGF retention in peptide matrix (ELISA); settings: bFGF 175 ng/insert loaded after gelation; during PBS washing and culturing; FIG. 19
Sequence of bFGF (P09038 143-288, species assumed): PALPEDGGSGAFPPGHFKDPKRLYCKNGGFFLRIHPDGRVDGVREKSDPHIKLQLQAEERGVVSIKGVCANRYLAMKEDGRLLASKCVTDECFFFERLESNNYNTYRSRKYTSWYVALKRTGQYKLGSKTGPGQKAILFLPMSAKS
Protocol: The effect of protein retention and delivery using the self-assembling peptide were studied (Table 11). bFGF was used as a model protein. The retention of bFGF in different peptide matrix in different charge condition was measured by ELISA after washing by PBS. After washing out unbound bFGF, the effect of protein retention to self-assembling peptide matrix were evaluated the using cell culturing of HUVEC (human umbilical vein endothelial cells).
The peptide solutions provided in Table 12 were loaded in the culture inserts (10 mm diameter, Millicell-CM, Millipore) and gels were formed using PBS. After gelation, bFGF solution in PBS was added inside and outside and plated for overnight. bFGF was loaded at 175 ng/insert. After loading bFGF, the PBS inside and outside the inserts were exchanged three times (2 hours, 9 hours and 12 hours) to remove unbound bFGF (Washing). After the washing, the PBS was exchanged to the cell culture medium (EGM-2-MV, Camblex) without attached growth factor (bFGF, VEGF and EGF) and placed more than a day (such that the fluid contained in the gel is exchanged from PBS to cell culture medium), then HUVEC (human umbilical vein endothelial cells) were plated at 7.5×10^4 cells on the inserts and cultured for three days.
Cell culturing using cell culture medium (EGM-2-MV) was used without attached growth factor on peptide matrix as negative control. Cell culturing using cell culture medium (EGM-2-MV) was used with attached growth factor on peptide matrix without loading growth factor as positive control. The bFGF concentration in washing buffer (PBS) and cell culture medium (EGM-2-MV) was measured using ELISA. The washing buffer and cell culture medium were exchanged at each measurement period (2 hours, 9 hours and 12 hours for washing, and at the cell seeding (D0), Day 1 (D 1), Day 2 (D2) and Day 3 (D3)). Growth factor retention rate was calculated by accumulating the amount of measured bFGF.

[8] = neutral pH range (Caplan 2002a); cited from earlier work; remark: listed apart in the source
[9] = tested on: Mouse preosteoblast cell line (MC3T3-E1); test: MC3T3-E1 cell proliferation on hydrogels (DNA content, PicoGreen); assay type: cell-based; settings: pre-osteoblast; when it becomes hydrogel; no data shown
Protocol: Mouse preosteoblast cell line (MC3T3-E1) was used to compare the proliferation and differentiation effects of the motifs with RAD16-1 and Collagen-I hydrogels as controls. The proliferation was measured by DNA contents and the differentiation effects were evaluated using Alkaline phosphatase (ALP) activity and secreted Osteocalcin. Alkaline phosphatase is known to be differentiation marker of osteoblast in earlier stage. Secreted Osteocalcin is known to be differentiation marker of osteoblast in later stage and its activity is correlated with the bone mineralization.
1% RAD16-I solution [self-assembling peptide solution] was obtained as RAD16-I (Puramatrix™, 3DM Inc./BD Bioscience). The functionalized peptides of Table 2 were dissolved in water at final concentration of 1% (v/w). The functionalized peptide solutions were then mixed with 1% RAD16-I solution at a ratio of 1:1 (Table 4). Each peptide solution was loaded in the Culture plate inserts (10 mm diameter, Millicell-CM, Millipore). […]
Cell proliferation was evaluated using DNA contents in the hydrogel using PicoGreen dsDNA Kits (Molecular Probes). ALP activity was quantitatively measured from cell lysis using Alkaline Phosphatase Fluorescence Assay Kit (Sigma). Osteocalcin was measured from cell culture medium using Mouse Osteocalcin EIA Kit (Biomedical Technologies Inc.).

| Substance | DNA amount in the well [1] | angiogenesis inside and below the hydrogel [2] | cell migration from the beads to the hydrogel [3] | Cell attachment ([4]; HUVEC cultured on hydrogels) | cell attachment compared to RAD ([4]; HUVEC on hydrogels for two days, confocal, FIGS. 24A-24M) | Cell attachment [5] | phase of peptide solution in neutral pH range [6] | charge [7] | pI [7] | bFGF (growth factor) retention rate (bFGF) | charge in neutral pH range [8] | cell proliferation on hydrogel [9] |
| --- | --- | --- | --- | --- | --- | --- | --- | --- | --- | --- | --- | --- |
| COL: Collagen-1 gel (0.25%); Collagen I gel from rat tail (BD Bioscience), control matrix | statically higher | no angiogenesis both inside and below the hydrogel | well migrated | ++++ (++++: near confluence(>70%)) | higher cell attachment |  |  |  |  |  |  |  |
| Ac(FKFQ)3-CONH2 (Ac-FKFQFKFQFKFQ-NH2) [FKF = 1% solution; FKF-2P = 2% solution, reference compound] |  |  |  |  |  | ++ (++: 20-50%) | stays solution phase; also recorded: stays in solution | positively charged | 10.30, | high in the order of KFQ-2P, FHR-2P, RAD-2P then DGR-2P | positively charged | supports cell proliferation |

Reference: patent publication US8022178B2, “Modified self-assembling peptides” (Massachusetts Institute of Technology, priority 2006, dated 2011)
